ChEMBL document CHEMBL5465560, “Selectivity Literature for EUbOPEN Chemogenomic Library” (2024)

Tests used:
[1] = target: T1, Serine/threonine-protein kinase ULK1 (Homo sapiens) (UniProt O75385); assay: Selectivity interaction (KinomeScan (DiscoverX)) EUB0000229b ULK1; conditions: at 10 µM
T1 sequence (whole entry): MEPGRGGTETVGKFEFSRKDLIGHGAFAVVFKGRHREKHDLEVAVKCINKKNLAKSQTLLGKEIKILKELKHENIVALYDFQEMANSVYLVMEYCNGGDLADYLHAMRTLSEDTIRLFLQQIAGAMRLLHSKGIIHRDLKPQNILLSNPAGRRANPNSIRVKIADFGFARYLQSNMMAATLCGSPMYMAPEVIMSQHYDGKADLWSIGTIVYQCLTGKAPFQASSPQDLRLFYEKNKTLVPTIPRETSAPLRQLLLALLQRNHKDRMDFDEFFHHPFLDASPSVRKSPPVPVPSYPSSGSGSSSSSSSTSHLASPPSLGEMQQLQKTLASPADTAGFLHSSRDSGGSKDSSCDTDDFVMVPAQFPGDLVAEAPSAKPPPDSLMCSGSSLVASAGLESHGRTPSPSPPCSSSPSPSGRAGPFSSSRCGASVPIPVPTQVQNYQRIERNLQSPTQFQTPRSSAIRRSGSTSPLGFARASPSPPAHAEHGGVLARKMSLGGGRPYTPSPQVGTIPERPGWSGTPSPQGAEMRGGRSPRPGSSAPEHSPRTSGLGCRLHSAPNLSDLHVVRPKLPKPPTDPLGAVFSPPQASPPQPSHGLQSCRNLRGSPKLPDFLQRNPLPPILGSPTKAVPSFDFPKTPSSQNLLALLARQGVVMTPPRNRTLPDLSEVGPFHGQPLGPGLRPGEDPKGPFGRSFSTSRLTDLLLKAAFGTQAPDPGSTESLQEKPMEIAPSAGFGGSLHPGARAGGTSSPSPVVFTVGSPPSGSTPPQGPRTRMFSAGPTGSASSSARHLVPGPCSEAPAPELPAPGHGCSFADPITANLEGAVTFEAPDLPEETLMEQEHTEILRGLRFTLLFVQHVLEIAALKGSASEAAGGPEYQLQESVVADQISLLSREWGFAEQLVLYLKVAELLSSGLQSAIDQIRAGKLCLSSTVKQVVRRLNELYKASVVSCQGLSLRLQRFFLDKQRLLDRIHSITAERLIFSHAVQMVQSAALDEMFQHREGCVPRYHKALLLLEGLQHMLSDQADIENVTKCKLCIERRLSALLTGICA

[2] = target: Cyclin-dependent kinase 5 (Homo sapiens, UniProt Q00535); conditions: at 10 µM
[3] = target: MAP/microtubule affinity-regulating kinase 3 (Homo sapiens) (UniProt P27448); assay: Selectivity interaction (ActivX KiNativ screen (kinase selectivity in THP-1 cell lysates)) EUB0000639a MARK3; type: subcellular; conditions: lysate, at 1 µM
[4] = target: L-type calcium channel Cav1.2 (CACNA1C) (Homo sapiens, UniProt Q13936); assay: Selectivity interaction (Panel of kinases, GPCRs, ion channels and transporters (enzymatic assay)) EUB0000223bCl CACNA1C
[5] = target: Mitogen-activated protein kinase 1 (Homo sapiens, UniProt P28482); assay: Selectivity interaction (KinomeScan (DiscoverX)) EUB0000695a MAPK1; conditions: at 100 nM
[6] = target: T2, Serine/threonine-protein kinase Nek11 (Homo sapiens) (UniProt Q8NG66); assay: Selectivity interaction (KinomeScan (DiscoverX)) EUB0000595a NEK11; conditions: at 10 µM
T2 sequence (whole entry): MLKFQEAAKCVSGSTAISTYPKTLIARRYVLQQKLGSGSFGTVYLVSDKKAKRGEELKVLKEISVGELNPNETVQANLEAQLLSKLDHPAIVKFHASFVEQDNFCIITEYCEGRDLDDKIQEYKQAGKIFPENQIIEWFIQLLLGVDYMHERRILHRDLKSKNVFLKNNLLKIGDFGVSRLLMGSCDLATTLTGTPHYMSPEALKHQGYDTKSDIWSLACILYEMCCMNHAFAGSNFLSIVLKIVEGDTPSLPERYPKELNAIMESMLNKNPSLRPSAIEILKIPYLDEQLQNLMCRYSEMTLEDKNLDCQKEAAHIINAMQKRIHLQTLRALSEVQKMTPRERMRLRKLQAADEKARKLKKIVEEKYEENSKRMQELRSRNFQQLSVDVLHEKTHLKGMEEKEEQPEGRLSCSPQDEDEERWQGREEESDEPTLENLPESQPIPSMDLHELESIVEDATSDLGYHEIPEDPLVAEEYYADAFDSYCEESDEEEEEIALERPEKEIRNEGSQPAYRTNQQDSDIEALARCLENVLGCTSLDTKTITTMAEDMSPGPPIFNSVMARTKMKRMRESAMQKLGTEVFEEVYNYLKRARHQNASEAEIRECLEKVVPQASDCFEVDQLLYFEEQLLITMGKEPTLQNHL

[7] = target: T3, Ankyrin repeat and protein kinase domain-containing protein 1 (Homo sapiens) (UniProt Q8NFD2); assay: Selectivity interaction (KinomeScan (DiscoverX)) EUB0000045b ANKK1
T3 sequence (whole entry): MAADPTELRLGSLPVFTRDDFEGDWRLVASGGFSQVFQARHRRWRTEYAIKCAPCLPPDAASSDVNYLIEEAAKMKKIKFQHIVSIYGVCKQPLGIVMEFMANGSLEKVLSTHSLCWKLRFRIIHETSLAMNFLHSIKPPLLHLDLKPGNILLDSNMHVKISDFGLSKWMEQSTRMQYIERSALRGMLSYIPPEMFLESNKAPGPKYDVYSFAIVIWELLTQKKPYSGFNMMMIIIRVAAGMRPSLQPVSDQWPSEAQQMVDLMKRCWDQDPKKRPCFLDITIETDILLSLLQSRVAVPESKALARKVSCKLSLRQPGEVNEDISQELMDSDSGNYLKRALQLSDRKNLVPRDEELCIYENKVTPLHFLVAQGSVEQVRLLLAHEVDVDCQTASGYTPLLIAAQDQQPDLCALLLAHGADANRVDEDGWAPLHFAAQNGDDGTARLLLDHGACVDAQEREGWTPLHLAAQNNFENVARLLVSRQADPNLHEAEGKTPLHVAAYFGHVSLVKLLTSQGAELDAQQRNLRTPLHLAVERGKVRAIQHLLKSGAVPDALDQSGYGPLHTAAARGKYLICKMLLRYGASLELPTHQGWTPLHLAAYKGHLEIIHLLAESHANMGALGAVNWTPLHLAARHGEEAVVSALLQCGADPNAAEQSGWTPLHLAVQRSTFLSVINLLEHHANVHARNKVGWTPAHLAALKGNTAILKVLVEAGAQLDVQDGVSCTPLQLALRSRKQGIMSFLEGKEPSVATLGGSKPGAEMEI

L-type calcium channel Cav1.2 (CACNA1C), sequence (Q13936 whole entry): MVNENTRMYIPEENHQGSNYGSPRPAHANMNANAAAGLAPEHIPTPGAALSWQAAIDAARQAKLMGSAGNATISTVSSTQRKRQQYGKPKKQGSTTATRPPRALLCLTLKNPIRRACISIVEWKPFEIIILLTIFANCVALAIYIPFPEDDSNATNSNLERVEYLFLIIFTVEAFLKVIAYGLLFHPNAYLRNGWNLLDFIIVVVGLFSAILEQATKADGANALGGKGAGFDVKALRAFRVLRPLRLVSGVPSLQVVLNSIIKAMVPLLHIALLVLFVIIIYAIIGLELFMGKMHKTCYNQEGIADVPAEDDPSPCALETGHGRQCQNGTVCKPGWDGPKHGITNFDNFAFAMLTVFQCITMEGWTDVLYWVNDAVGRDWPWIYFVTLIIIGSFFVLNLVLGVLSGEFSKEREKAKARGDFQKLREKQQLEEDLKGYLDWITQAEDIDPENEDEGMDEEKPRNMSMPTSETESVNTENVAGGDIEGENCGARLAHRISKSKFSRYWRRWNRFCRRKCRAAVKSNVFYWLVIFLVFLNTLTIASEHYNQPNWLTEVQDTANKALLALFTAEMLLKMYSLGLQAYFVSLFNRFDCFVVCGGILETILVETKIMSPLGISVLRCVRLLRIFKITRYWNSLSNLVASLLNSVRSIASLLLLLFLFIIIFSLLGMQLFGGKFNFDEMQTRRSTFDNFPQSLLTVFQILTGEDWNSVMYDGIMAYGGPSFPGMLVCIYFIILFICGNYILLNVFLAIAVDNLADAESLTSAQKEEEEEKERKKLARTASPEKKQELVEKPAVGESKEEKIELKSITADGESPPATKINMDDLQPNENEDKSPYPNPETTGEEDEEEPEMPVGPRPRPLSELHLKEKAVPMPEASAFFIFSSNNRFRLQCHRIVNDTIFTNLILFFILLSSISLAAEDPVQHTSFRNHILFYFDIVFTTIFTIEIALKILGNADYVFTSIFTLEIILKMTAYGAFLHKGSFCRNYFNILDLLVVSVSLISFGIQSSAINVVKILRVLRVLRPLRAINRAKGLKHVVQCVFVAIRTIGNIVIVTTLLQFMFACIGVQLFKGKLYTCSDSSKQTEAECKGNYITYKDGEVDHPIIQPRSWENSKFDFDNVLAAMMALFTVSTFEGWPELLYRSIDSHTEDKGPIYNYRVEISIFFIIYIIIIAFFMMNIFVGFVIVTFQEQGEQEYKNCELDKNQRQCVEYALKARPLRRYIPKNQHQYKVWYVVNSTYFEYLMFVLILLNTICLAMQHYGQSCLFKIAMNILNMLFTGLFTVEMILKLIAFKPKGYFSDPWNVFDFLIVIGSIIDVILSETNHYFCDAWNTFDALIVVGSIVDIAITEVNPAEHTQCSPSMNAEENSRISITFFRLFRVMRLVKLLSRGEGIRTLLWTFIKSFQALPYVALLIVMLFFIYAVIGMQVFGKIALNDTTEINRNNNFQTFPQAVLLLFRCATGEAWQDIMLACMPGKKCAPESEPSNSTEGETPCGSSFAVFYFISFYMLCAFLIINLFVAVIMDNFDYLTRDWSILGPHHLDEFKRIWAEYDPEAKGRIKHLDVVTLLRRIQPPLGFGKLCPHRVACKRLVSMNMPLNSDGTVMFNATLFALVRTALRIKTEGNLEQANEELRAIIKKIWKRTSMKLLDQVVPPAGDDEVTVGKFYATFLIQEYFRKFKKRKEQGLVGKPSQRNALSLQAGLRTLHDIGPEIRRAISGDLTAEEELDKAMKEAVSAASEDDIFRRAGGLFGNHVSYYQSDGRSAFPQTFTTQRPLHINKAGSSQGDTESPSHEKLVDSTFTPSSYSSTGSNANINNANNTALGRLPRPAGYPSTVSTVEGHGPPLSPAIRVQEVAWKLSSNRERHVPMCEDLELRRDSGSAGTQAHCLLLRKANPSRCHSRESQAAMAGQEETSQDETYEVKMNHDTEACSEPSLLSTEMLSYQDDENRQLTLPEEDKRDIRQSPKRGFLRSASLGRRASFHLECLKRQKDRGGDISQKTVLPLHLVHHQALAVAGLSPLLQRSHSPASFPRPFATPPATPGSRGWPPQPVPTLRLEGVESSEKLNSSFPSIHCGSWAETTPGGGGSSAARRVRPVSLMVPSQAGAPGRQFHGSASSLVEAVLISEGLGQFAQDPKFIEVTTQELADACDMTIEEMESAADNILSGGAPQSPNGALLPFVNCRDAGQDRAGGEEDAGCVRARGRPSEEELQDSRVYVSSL
Cyclin-dependent kinase 5, sequence (Q00535 whole entry, looked up): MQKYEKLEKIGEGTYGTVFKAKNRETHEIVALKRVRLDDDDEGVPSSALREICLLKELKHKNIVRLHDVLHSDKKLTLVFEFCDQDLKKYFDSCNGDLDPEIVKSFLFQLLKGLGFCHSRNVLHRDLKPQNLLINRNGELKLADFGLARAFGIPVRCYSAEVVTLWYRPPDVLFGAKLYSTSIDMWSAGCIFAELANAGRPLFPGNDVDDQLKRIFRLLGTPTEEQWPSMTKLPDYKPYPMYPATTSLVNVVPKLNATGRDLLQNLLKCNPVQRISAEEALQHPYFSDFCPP
Mitogen-activated protein kinase 1, sequence (P28482 whole entry): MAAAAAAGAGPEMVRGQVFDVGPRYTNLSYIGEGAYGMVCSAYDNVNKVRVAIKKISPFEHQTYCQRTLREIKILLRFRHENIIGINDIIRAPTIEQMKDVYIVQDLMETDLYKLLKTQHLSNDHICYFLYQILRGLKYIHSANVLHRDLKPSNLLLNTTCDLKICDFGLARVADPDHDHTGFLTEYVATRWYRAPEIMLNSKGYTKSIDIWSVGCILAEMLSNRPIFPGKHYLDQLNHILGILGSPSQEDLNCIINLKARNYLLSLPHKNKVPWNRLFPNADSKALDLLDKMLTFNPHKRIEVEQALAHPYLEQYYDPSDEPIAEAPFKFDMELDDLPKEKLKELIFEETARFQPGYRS
MAP/microtubule affinity-regulating kinase 3 (Homo sapiens), sequence (P27448 whole entry, looked up): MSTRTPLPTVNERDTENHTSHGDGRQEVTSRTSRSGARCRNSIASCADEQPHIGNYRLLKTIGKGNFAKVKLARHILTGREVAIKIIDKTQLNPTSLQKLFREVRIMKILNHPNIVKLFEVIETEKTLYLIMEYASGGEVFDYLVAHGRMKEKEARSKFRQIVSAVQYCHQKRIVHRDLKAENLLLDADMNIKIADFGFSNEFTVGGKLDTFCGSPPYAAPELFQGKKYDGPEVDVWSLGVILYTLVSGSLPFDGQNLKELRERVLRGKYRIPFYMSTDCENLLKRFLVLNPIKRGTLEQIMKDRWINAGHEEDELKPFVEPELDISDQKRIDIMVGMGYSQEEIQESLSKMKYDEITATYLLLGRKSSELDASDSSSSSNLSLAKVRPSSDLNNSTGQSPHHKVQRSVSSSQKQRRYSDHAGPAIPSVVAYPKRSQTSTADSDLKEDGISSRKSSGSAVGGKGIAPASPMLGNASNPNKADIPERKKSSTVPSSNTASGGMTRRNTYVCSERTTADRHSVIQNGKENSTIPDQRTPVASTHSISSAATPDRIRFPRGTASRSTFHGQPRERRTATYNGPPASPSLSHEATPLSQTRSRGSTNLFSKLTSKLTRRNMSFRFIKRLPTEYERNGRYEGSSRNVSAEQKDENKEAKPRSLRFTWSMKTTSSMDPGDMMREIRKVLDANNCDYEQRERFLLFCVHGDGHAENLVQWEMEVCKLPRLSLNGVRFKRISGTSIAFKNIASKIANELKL

## COc1cc(N(C)c2ccnc3ccc(C(F)(F)F)cc23)cc(OC)c1OC
[1]
  % binding: 73%

## Cc1cc([C@@H](C)Nc2ccccc2C(=O)O)c2nc(N3CCOCC3)cc(=O)n2c1 [AZD-6482]
[2]
  % of control: 100%

## CC[C@@H]1[C@H](F)C(=O)N[C@@H]1COc1nccc2cc(C(N)=O)c(OC)cc12 [ZIMLOVISERTIB]
[3]
  % of inhibition: 4.3%

## COc1cc(C(=O)N2CC[C@@H](O)[C@@H](N)C2)cc2nc(-c3cc4ccccc4n3CC3CC3)n(C)c12
[4]
  XC50: 3.98 µM

## Cc1cc(F)c(C(=O)Nc2cccc(-c3nncn3C(C)C)n2)cc1-n1cnc(C2CC2)c1
[5]
  % of control: 98%

## COCC(=O)NC/C=C/c1ccc2ncnc(Nc3ccc(Oc4ccc(C)nc4)c(C)c3)c2c1 [CP-724714]
[6]
  % of control: 100%

## C=CC(=O)Nc1cc(-n2c(=O)ccc3cnc4ccc(-c5ccc(NS(C)(=O)=O)cc5)cc4c32)ccc1C
[7]; at 1 µM
  % of control: 100%
[7]; at 10 µM
  % of control: 77%
